Measured values taken from patent US20050049242A1 (priority 2000, published 2005).

What follows are compounds tested against HIV-1 IN (Human immunodeficiency virus type 1 group M subtype B, UniProt P12497) (assay: biochemical). Details: not given.

In order of falling IC50:
1. O=C(C=Cc1ccc(O)c(O)c1)NCCCCC(NC(=O)C=Cc1ccc(O)c(O)c1)C(=O)O [Compound 41, 1,4-dicaffeoyl-L-lysine]  2230 nM
2. O=C(O)C(=Cc1ccc(O)c(O)c1)C(=Cc1ccc(O)c(O)c1)C(=O)O [Compound 37, Di-3,4-dihydroxybenzylidene succinic acid]  2190 nM
3. O=C(C=Cc1ccc(O)c(O)c1)Nc1ccc(C(=O)O)cc1NC(=O)C=Cc1ccc(O)c(O)c1 [Compound 36, Bis-3,4-dicaffeoyldiamidobenzoic acid]  734 nM
4. O=C(C=Cc1ccc(O)c(O)c1)NCC(NC(=O)C=Cc1ccc(O)c(O)c1)C(=O)O (stereo not drawn) [Compound 35, 2-3-dicaffeoyldiamidopropionic acid]  570 nM
5. O=C(/C=C/c1ccc(O)c(O)c1)OC[C@H](OC(=O)/C=C/c1ccc(O)c(O)c1)C(=O)O [Compound 19, Dicaffeoyl-L-glyceric acid]  520 nM
6. O=C(C=Cc1ccc(O)c(O)c1)NCC(OC(=O)C=Cc1ccc(O)c(O)c1)C(=O)O [Compound 40, Bis-dicaffeoyl-L-isoserine]  195 nM

These compounds were tested on HIVLAI (assay: Anti-HIV assay, protection from HIV-induced cell death). Details: Human immunodeficiency virus 1, MT2, 72 h, read-out: ED50 (concentration that inhibits HIV-induced cell death by 50%).
Format: cell-based
Experimental: Anti-HIV assays were performed as described above. […] The compounds were then two-fold serially diluted in triplicate. To each 50 μl of diluted compound, 50 μl of HIVLAI was added and the virus-drug mixture was incubated for 1 hr at 37° C. […] Final multiplicity of infection (MOI) was 1-5. Cells were harvested to quantitate cytopathic effect using a neutral red dye assay as described.

In order of rising EC50:
1. O=C(/C=C/c1ccc(O)c(O)c1)OC[C@H](OC(=O)/C=C/c1ccc(O)c(O)c1)C(=O)O [Compound 19, Dicaffeoyl-L-glyceric acid]  2300 nM
2. O=C(C=Cc1ccc(O)c(O)c1)NCC(OC(=O)C=Cc1ccc(O)c(O)c1)C(=O)O [Compound 40, Bis-dicaffeoyl-L-isoserine]  3000 nM
3. O=C(C=Cc1ccc(O)c(O)c1)NCCCCC(NC(=O)C=Cc1ccc(O)c(O)c1)C(=O)O [Compound 41, 1,4-dicaffeoyl-L-lysine]  3700 nM
4. O=C(C=Cc1ccc(O)c(O)c1)Nc1ccc(C(=O)O)cc1NC(=O)C=Cc1ccc(O)c(O)c1 [Compound 36, Bis-3,4-dicaffeoyldiamidobenzoic acid]  4600 nM
5. O=C(O)C(=Cc1ccc(O)c(O)c1)C(=Cc1ccc(O)c(O)c1)C(=O)O [Compound 37, Di-3,4-dihydroxybenzylidene succinic acid]  8700 nM
6. O=C(C=Cc1ccc(O)c(O)c1)NCC(NC(=O)C=Cc1ccc(O)c(O)c1)C(=O)O (stereo not drawn) [Compound 35, 2-3-dicaffeoyldiamidopropionic acid]  70000 nM

The compounds below were run on MT-2 cells (assay: not given). Details: 48 hours.
From the text: The chemical structures of the compounds are illustrated in FIGS. 1-4. In FIG. 1a, the D- and meso-isomers of L-chicoric acid are identical in this illustrative format. […] The first compound in Table 1, L-chicoric acid, a previously described DCTA, is included for reference. LD5, the 5% lethal dose, is a measure of the toxicity of compound to living, cultured cells. It is the concentration at which cell growth is inhibited by 5%. […] Most simply understood, disintegration is a term used to refer to the reverse of integration.
Cell toxicity and anti-HIV assays were performed as reported above. […] Cells were incubated with drug for 48 hours at 37° C., then harvested for cell viability in a neutral red dye assay as described.

In order of falling “LD5 (5% lethal dose, concentration at which cell growth is inhibited by 5%)” value:
1. O=C(C=Cc1ccc(O)c(O)c1)NCC(OC(=O)C=Cc1ccc(O)c(O)c1)C(=O)O [Compound 40, Bis-dicaffeoyl-L-isoserine]  175 µM
2. O=C(/C=C/c1ccc(O)c(O)c1)OC[C@H](OC(=O)/C=C/c1ccc(O)c(O)c1)C(=O)O [Compound 19, Dicaffeoyl-L-glyceric acid]  145 µM
3. O=C(C=Cc1ccc(O)c(O)c1)NCC(NC(=O)C=Cc1ccc(O)c(O)c1)C(=O)O (stereo not drawn) [Compound 35, 2-3-dicaffeoyldiamidopropionic acid]  50 µM
4. O=C(C=Cc1ccc(O)c(O)c1)Nc1ccc(C(=O)O)cc1NC(=O)C=Cc1ccc(O)c(O)c1 [Compound 36, Bis-3,4-dicaffeoyldiamidobenzoic acid]  47 µM
5. O=C(O)C(=Cc1ccc(O)c(O)c1)C(=Cc1ccc(O)c(O)c1)C(=O)O [Compound 37, Di-3,4-dihydroxybenzylidene succinic acid]  35 µM
6. O=C(C=Cc1ccc(O)c(O)c1)NCCCCC(NC(=O)C=Cc1ccc(O)c(O)c1)C(=O)O [Compound 41, 1,4-dicaffeoyl-L-lysine]  29.2 µM
